Test results: US9198886B2, “Use of 2,5-dihydroxybenzene for the treatment of ocular diseases” (priority 2006, dated 2015)

Key:
[1] = target: T1, fibroblast growth factor-1 (FGF-1) (Homo sapiens, UniProt P05230); assay: FGF-1 induced mitogenesis in quiescent Balb/c 3T3 fibroblasts; assay type: cell-based; conditions: potassium salts, except 2-acetoxy-5-hydroxybenzene sulfonate as calcium salt
Method: The evaluated compounds were used in the form of potassium salt, except in the first case in which calcium salt was used. The experiments were carried out as described in Fernández-Tornero C et al. J Biol Chem, 2003.

[2] = target: T1, fibroblast growth factor-1 (FGF-1); assay: Co-crystal structure with fibroblast growth factor-1; assay type: binding; conditions: for binding site on FGF-1: crystal diffraction of the complex; for acetoxyl groups of the compound when bound to FGF-1: crystal diffraction, electron density contoured at 1σ
From the text: (§1) FIG. 24. 2-acetoxy-5-hydroxybenzenesulfonic acid co-crystallized with fibroblast growth factor-1. […] The compound occupies a place that is very close to that described occupied by 2,5-dihydroxybenzenesulfonic acid, the aromatic ring of which forms a cation-π bond with the N^ε group of lysine 132, which is marked in panel A as reference. […] In panels A and B, the protein surface is colored according to its electrostatic potential (light grey: negative charge; dark grey: positive charge; white: lack of charge).
as §1, with “25. 5-acetoxy-2-hydroxybenzenesulfonic” for “24. 2-acetoxy-5-hydroxybenzenesulfonic”
as §1, with “26. 2,5-diacetoxybenzenesulfonic” for “24. 2-acetoxy-5-hydroxybenzenesulfonic”
Based on the crystal diffraction of the FGF-1:2-acetoxy-5-hydroxybenzene sulfonic acid, FGF-1:5-acetoxy-2-hydroxybenzene sulfonic acid and FGF-1:2,5-diacetoxybenzene sulfonic acid complexes, the structures of the complexes were calculated and represented. FIGS. 24, 25 and 26, which show the surface of the dyed protein according to its electrostatic potential (light grey: negative charge; dark grey: positive charge; white: lack of charge), show the manner in which 2-acetoxy-5-hydroxybenzene sulfonic acid, 5-acetoxy-2-hydroxybenzene sulfonic acid and 2,5-diacetoxybenzene sulfonic acid interact, respectively, with FGF-1.

rat glioma C6 cells = assay: Proliferation of rat glioma C6 cells (crystal violet); assay type: cell-based; conditions: 500 μM, 48 h
Method: FIG. 23. […] 5A-2HBS and 2A-5HBS were administered or not (control) after seeding C6 cells in 24 well plates (10^4 per well) until they were fixed 48 hours later. Data are expressed as the mean±SEM of the percentage of absorbance at 595 nm obtained in control cultures, which is proportional to the number of cells stained with crystal violet. Data were obtained from 3 cultures for each treatment and 6 control cultures.
The cell line used was the C6 cell line. The cells were cultured as previously described (Cuevas P et al., Neurol Res 2005, 27:797-800). The cells were cultured as adherent cells in Dulbecco's modified Eagle's medium, supplemented with 7.5% (v/v) fetal bovine serum, 10 μg/ml streptomycin and 10 units/ml penicillin. The tumor cells were seeded in 24-well plates at a density of 10,000 cells/well, and were incubated at 37° C. in a humidified chamber with 5% CO2. Once adhered, the cells were treated or not (controls) with (5A-2HBS) (500 μM) or (2A-5HBS) (500 μM) and they were allowed to proliferate for 48 h. After this time the glioma cell proliferation was evaluated by means of staining the fixed cells with crystal violet. The number of cells is proportional to the amount of retained dye, which was determined spectrophotometrically by measuring the absorbance at 595 nm once the dye was extracted from the cells.

[3] = tested on: corneal neovascularization; assay: Topical solution in a patient with corneal neovascularization; assay type: in vivo, human; conditions: 5% solution of potassium salt, 4 drops a day topically, 19 days, one patient
From the text: Photographs showing the presence of corneal neovascularization in a patient before being treated (A) and after 19 days of topical application of a solution containing 5% of potassium 2,5-dihydroxybenzoate (B). The treatment consisted of daily topical application of 4 drops of such solution.
4 drops a day were topically applied in a patient that presented a corneal neovascularization process refractory to any type of previous treatment.

[4] = tested on: human retinal endothelial cells (HREC); assay: Proliferation of human retinal endothelial cells (crystal violet); assay type: cell-based; conditions: 72 hours
Method: (§2) Primary cultures of human retinal endothelial cells (HREC) were used. Cells were obtained from Cell Systems (Virginia, USA) and subcultured with CSC complete medium (Cell Systems). Cells at 2 to 5 passages were seeded in 24-well plates at 7,500 cells/well density and, once attached, the cells were treated or not treated (controls) with 2A-5HBS (500 and 1000 μM) or 5A-2HBS (500 and 1000 μM) and they were allowed to proliferate for 72 hours, with daily medium changes. After that, the proliferation of HREC was evaluated by staining the fixed cells with crystal violet. The number of cells is proportional to the amount of retained dye, which was spectrophotometrically determined by measuring absorbance at 595 nm after removing the dye from the cells. Data are expressed as the percentage of absorbance at 595 nm obtained in control conditions. Data were obtained from two different experiments performed in triplicate.
as §2, with “2,5-DHCME (50” for “2A-5HBS (500”, “100” for “1000 μM) or 5A-2HBS (500 and 1000”, “changes. Under the same conditions, other cultures were treated with calcium 2,5-dihydroxybenzenesulfonate (DHBS; 100 μM) for comparison.” for “changes.”

T1 sequence (P05230 whole entry, species assumed): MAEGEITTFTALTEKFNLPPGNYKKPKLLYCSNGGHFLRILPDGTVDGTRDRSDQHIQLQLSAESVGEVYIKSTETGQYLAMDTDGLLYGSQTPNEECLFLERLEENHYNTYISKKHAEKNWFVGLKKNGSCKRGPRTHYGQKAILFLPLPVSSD

CC(=O)Oc1ccc(O)c(S(=O)(=O)[O-])c1.[K+] [5A-2HBS, potassium 5-acetoxy-2-hydroxybenzene sulfonate]
FGF-1 induced mitogenesis [1]: Inhibition of FGF-1 induced mitogenesis was observed | binding site on FGF-1 [2]: very close to the one that has been described occupied by 2,5-dihydroxybenzene sulfonic acid | acetoxyl groups of the compound when bound to FGF-1 [2]: conserve the acetoxyl groups | C6 glioma cell proliferation (rat glioma C6 cells): inhibition of rat glioma cell proliferation

O=C([O-])c1cc(O)ccc1O.[K+] [2,5-dihydroxybenzoate, potassium 2,5-dihydroxybenzoate]
degree of corneal vascularization [3]: remarkable reduction in the degree of corneal vascularization

COC(=O)C=Cc1cc(O)ccc1O [2,5-DHCME, 2,5-dihydroxycinnamic acid methyl ester]
HREC proliferation ([4]; 50 μM): significant inhibition of HREC proliferation | HREC proliferation ([4]; 100 μM, DHBS as calcium salt): significant inhibition of HREC proliferation

CC(=O)Oc1ccc(O)cc1S(=O)(=O)[O-].[K+] [2A-5HBS, potassium 2-acetoxy-5-hydroxybenzene sulfonate]
FGF-1 induced mitogenesis [1]: Inhibition of FGF-1 induced mitogenesis was observed | binding site on FGF-1 [2]: very close to the one that has been described occupied by 2,5-dihydroxybenzene sulfonic acid | acetoxyl groups of the compound when bound to FGF-1 [2]: conserve the acetoxyl groups | HREC proliferation ([4]; 500 μM): significant inhibition of HREC proliferation | HREC proliferation ([4]; 1000 μM): significant inhibition of HREC proliferation | C6 glioma cell proliferation (rat glioma C6 cells): inhibition of rat glioma cell proliferation
